Results taken from PMC9545781 (British Journal of Clinical Pharmacology, 2022).
“And” between values parts separate entries of the source, which are not always exact repeats. Equal values may be shown once. “Also recorded” adds a separate entry of the source. Read-outs that look alike come from different tables or passages of the source.

Experiments:
[1] = Plasma protein binding by equilibrium dialysis; conditions: plasma spiked at 1 μM, 37°C, 4 hours, mean (SEM)
Protocol: (§1) Plasma protein binding was measured by equilibrium dialysis using 96‐well plate blocks with 2 compartments separated by a vertical cylinder of dialysis membrane (molecular weight cut off ~8000 Da; ThermoFisher Scientific). […] The unit was covered and incubated at 37°C on an orbital shaker for 4 hours. After incubation, samples from both plasma (bound) chamber and the buffer (free) chamber were taken and matrix‐matched by addition of the alternative blank matrix. Acetonitrile containing internal standard was added to all samples. […] The ratio of responses in free to bound samples equates to the free fraction.

[2] = in vitro; conditions: plasma, pH 7.4
Protocol: as §1

[3] = test system: TSPO; conditions: cited from earlier work
[4] = parameters: method as in PMID 19541954; conditions: cited from earlier work
[5] = test system: TSPO; assay: Estimates of TSPO occupancy from plasma concentration and binding affinity; parameters: species or system human; conditions: 90 mg oral XBD173
[6] = Open-label clinical pharmacokinetic study of oral XBD173 and etifoxine in healthy volunteers (plasma LC-MSMS); format: in vivo, human; conditions: for AUClast / concentration at 30 min / concentration at 60 min / concentration at 120 min / concentration at 180 min / concentration at 240 min / AUC(0-t) / Cmax / Tmax / AUC0‐4 h / AUC: plasma; for Adverse events: 4 healthy volunteers, XBD173 90 mg once daily 7 days and etifoxine 50 mg TDS 7 days; for concentration at 30 min / concentration at 60 min / concentration at 120 min / concentration at 180 min / concentration at 240 min / AUC(0-t) / Cmax / Tmax / AUC: human, po; for AUC: read-out: AUC0‐4 h
Protocol: This was a single centre, open‐label study enrolling 4 adult healthy volunteers (aged 35–65 y) irrespective of rs6971 genotype. Detailed inclusion and exclusion criteria are shown in the supplementary information. […] As a precaution, therefore, a long washout period was chosen. The first dose was taken at the clinical research facility and the participant was monitored for 4 hours. Subsequent doses were taken at home by the participant. On day 7, the participant returned for a final assessment. […] The PI of the study was Paul M. Matthews (DPhil, FRCP, FMedSci) who is an author on the manuscript.
Plasma samples for pharmacokinetic analysis were obtained on day 1 at 0.5, 1, 2, 3, 4 hours following the first dose. […] Plasma samples were stored at −20°C or lower until analysis. Plasma samples (25 μL) were prepared for analysis by protein precipitation with acetonitrile containing internal standard (tolbutamide; 200 μL) followed by mixing (150 rpm, 15 min) and centrifugation (1500 g, 15 min). The supernatant (50) μL was diluted with water (100 μL) and mixed (100 rpm, 15 min). […] Injection volume was 1 μL.

[7] = biological target: γ‐aminobutyric acid‐a receptor; conditions: rodent brain; cited from earlier work
[8] = biological target: TSPO (Homo sapiens, UniProt P30536); assay: Competition radioligand binding with [3H]PK11195 in human brain membranes
Sequence of TSPO (Homo sapiens, UniProt P30536) (P30536 2-169): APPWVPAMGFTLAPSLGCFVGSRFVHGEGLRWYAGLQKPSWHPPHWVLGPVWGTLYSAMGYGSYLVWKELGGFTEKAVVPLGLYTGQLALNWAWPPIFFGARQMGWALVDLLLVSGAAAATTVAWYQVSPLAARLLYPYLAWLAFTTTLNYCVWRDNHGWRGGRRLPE
Protocol: The assay was terminated via filtration through Whatman GF/B filters. Scintillation fluid (4 mL/vial, Perkin Elmer Ultima‐Gold MV) was added and vials counted on a Perkin Elmer Tricarb 2900 liquid scintillation counter.
Tissue was obtained from 8 donors from the UK Multiple Sclerosis (MS) Tissue Bank at Imperial College. […] The tissue was stored at -80 °C until use.
Tissue blocks were homogenised in 10 times weight for volume (w/v) buffer (0.32mM sucrose, 5mM Tris base, 1mM MgCl2, pH 7.4, 4 °C). Homogenates were centrifuged (32,000g, 20min, 4 °C) followed by removal of the supernatant. Pellets were re-suspended in at least 10 times w/v buffer (50mM Tris base, 1mM MgCl2, pH 7.4, 4 °C) followed by two washes by centrifugation (32,000g, 20min, 4 °C). Membranes were suspended in buffer (50mM Tris base, 1mM MgCl2, pH 7.4, 4 °C) at a protein concentration of approximately 4 mg protein/ml and aliquots were stored at -80 °C until use.
All competition data were analysed using the iterative non-linear regression curve fitting software supplied with GraphPad Prism 8.1. A single site competition model was fitted to the data using the least squares algorithm. […] Data are expressed as the mean ± standard error of the mean (SEM). The Student’s t-test (GraphPad Prism 8.1) was used to determine statistical significance.

[9] = Solubility limitation of etifoxine in binding assay; format: physicochemical; conditions: assay buffer pH 7.4
Protocol: The specific binding component was determined using unlabelled PK11195 (10µM). Following incubation, assays were terminated via filtration through Whatman GF/B filters, followed by 3 x 1 ml washes with ice-cold wash buffer (50mM Tris Base, 1.4mM MgCl2, pH 7.4, 4 °C). Whatman GF/B filters were pre-incubated with 0.05% polyethyleneimine (60min) before filtration. Scintillation fluid (4ml/vial, Perkin Elmer Ultima Gold MV) was added and vials counted on a Perkin Elmer Tricarb 2900 liquid scintillation counter. For each donor, each point was performed in quadruplicate. Ki (nM) values were determined using GraphPad Prism 8.1 software (GraphPad Software Inc, USA).

[10] = test system: TSPO; conditions: cited from earlier work; remark: listed apart in the source
[11] = test system: experimental autoimmune encephalomyelitis mouse model; conditions: cited from earlier work
[12] = test system: γ‐aminobutyric acid‐a receptor; conditions: cited from earlier work
[13] = 90 mg, 90mg XBD173 single oral dose, participant 2
[14] = 90 mg, 90mg XBD173 single oral dose, Mean (SEM)
[15] = 90 mg, 90mg XBD173 single oral dose, participant 1
[16] = 90 mg, 90mg XBD173 single oral dose, participant 3
[17] = 90 mg, 90mg XBD173 single oral dose, participant 4
[18] = 90 mg, 90 mg XBD173 single oral dose, Median of 4 participants
[19] = 90 mg, 90 mg XBD173 single oral dose, participant 1
[20] = 90 mg, 90 mg XBD173 single oral dose, participant 2
[21] = 90 mg, 90 mg XBD173 single oral dose, participant 3
[22] = 90 mg, 90 mg XBD173 single oral dose, participant 4
[23] = 50 mg, 50mg etifoxine single oral dose, participant 2
[24] = 50 mg, 50mg etifoxine single oral dose, Mean (SEM)
[25] = 50 mg, 50mg etifoxine single oral dose, participant 3
[26] = 50 mg, 50mg etifoxine single oral dose, participant 4
[27] = 50 mg, 50mg etifoxine single oral dose, participant 1
[28] = 50 mg, 50 mg etifoxine single oral dose, Median of 4 participants
[29] = 50 mg, 50 mg etifoxine single oral dose, participant 1
[30] = 50 mg, 50 mg etifoxine single oral dose, participant 2
[31] = 50 mg, 50 mg etifoxine single oral dose, participant 3
[32] = 50 mg, 50 mg etifoxine single oral dose, participant 4

For `CCN(Cc1ccccc1)C(=O)Cn1c(=O)n(C)c2cnc(-c3ccccc3)nc21` [XBD173], the “Fraction in plasma bound” value [1] is given as 99.66%, the fraction unbound at 4 h, 1 μM [2] is given as 0.0034 and the “Affinity for TSPO in the human brain” value [3] is given as 2 to 3 nM. For the same molecule, the Peak plasma concentrations ([4]; 90‐mg dose) was “micromolar range”, the Plasma concentration reached ([4]; 90‐mg dose) was 1000 nM and the “Accumulation on repeated dosing” value [4] was “does not accumulate”. For the same molecule, the “Predicted TSPO occupancy” value ([5]; from free plasma concentration, in HABs) was ~ 30%, the “Predicted TSPO occupancy from total plasma concentration” value ([5]; total plasma concentration ~320 nM) was > 99% and the AUClast ([6]; 90 mg XBD173 single oral dose, Max of 4 participants) was 556 ng·h/mL. The AUClast ([6]; 90 mg XBD173 single oral dose, Min of 4 participants) was 74 ng·h/mL, the “Estimate of plasma concentration (total)” value ([6]; 90 mg oral XBD173) was ~ 320 nM and the Adverse events [6] was “No adverse events were reported”. For the same molecule, the concentration at 30 min [6, 13] was 5.7 ng/mL, the concentration at 60 min [6, 14] was 31.2 ng/mL and the concentration at 60 min [6, 15] was 28.4 ng/mL. It also gave a concentration at 60 min [6, 13] of 15.4 ng/mL, a concentration at 60 min [6, 16] of 62.7 ng/mL and a concentration at 60 min [6, 17] of 18.4 ng/mL. It also gave a concentration at 120 min [6, 14] of 106 ng/mL, a concentration at 120 min [6, 15] of 55.8 ng/mL and a concentration at 120 min [6, 13] of 24.2 ng/mL. It also gave a concentration at 120 min [6, 16] of 263 ng/mL, a concentration at 120 min [6, 17] of 82.7 ng/mL and a concentration at 180 min [6, 14] of 99.7 ng/mL. For the same molecule, the concentration at 180 min [6, 15] was 43.3 ng/mL, the concentration at 180 min [6, 13] was 23 ng/mL and the concentration at 180 min [6, 16] was 161 ng/mL. For the same molecule, the concentration at 180 min [6, 17] was 171 ng/mL, the concentration at 240 min [6, 14] was 87.6 ng/mL and the concentration at 240 min [6, 15] was 40.4 ng/mL. For the same molecule, the concentration at 240 min [6, 13] was 24.5 ng/mL, the concentration at 240 min [6, 16] was 139 ng/mL and the concentration at 240 min [6, 17] was 146 ng/mL. The AUC(0-t) [6, 18] was 247 ng·h/mL, the Cmax [6, 18] was 114 ng/mL and the Tmax [6, 18] was 2.5 h. The AUC(0-t) [6, 19] was 148 ng·h/mL, the Cmax [6, 19] was 56 ng/mL and the Tmax [6, 19] was 2 h. It also gave an AUC(0-t) [6, 20] of 74 ng·h/mL, a Cmax [6, 20] of 25 ng/mL and a Tmax [6, 20] of 4 h. For the same molecule, the AUC(0-t) [6, 21] was 556 ng·h/mL, the Cmax [6, 21] was 263 ng/mL and the Tmax [6, 21] was 2 h. For the same molecule, the AUC(0-t) [6, 22] was 345 ng·h/mL, the Cmax [6, 22] was 171 ng/mL and the Tmax [6, 22] was 3 h.
In the case of `CCNC1=Nc2ccc(Cl)cc2C(C)(c2ccccc2)O1` (centres unmarked) [etifoxine], the “Fraction in plasma bound” value [1] is given as 99.71%, the Plasma free fraction [1] is given as 0.29% and the IC50 [7] is given as ~6.7 µM. For the same molecule, the Ki ([8]; read-out: Affinity of etifoxine for TSPO estimated here, value used for the occupancy estimate) was 7.6 µM, the Ki ([8]; read-out: Estimated Ki for the whole population, single site binding curve, human brain tissue, 8 donors (4 HABs, 4 LABs), 95% CI 4.5–14.6 μM, competition curve did not fully plateau) was 7.8 µM and ~7.8 µM and the Ki ([8]; read-out: Mean Ki, human brain tissue, high affinity binders (HABs), n = 4, [3H]PK11195 0.3 nM) was 7.6 ± 2.2 µM. For the same molecule, the “Highest concentration that could be studied due to limitations of solubility” value [9] was ≤ 30 µM, the “Binding affinity for TSPO” value ([10]; rodent heart) was 22.5 µM and the “Binding affinity for TSPO” value ([10]; rodent kidney) was 14 µM and 9 µM. For the same molecule, the Clinical scores [11] was “improved clinical scores”, the “Concentration above which pharmacodynamic actions at the receptor are elicited” value [12] was “above 1 μM” and the “AUC0‐4 h” value ([6]; 50 mg etifoxine single oral dose, Max of 4 participants) was 83 ng·h/mL. For the same molecule, the “AUC0‐4 h” value ([6]; 50 mg etifoxine single oral dose, Min of 4 participants) was 59 ng·h/mL, the Adverse events [6] was “No adverse events were reported” and the “Accumulation after multiple doses” value ([6]; etifoxine 50 mg TDS for 7 days, day 7 vs day 1 plasma concentration) was “did not find evidence for significant etifoxine accumulation; also recorded: did not find evidence for drug accumulation”. For the same molecule, the concentration at 30 min [6, 23] was 4 ng/mL, the concentration at 60 min [6, 24] was 8.2 ng/mL and the concentration at 60 min [6, 23] was 15.9 ng/mL. It also gave a concentration at 60 min [6, 25] of 6.2 ng/mL, a concentration at 60 min [6, 26] of 2.4 ng/mL and a concentration at 120 min [6, 24] of 29.8 ng/mL. It also gave a concentration at 120 min [6, 27] of 15.5 ng/mL, a concentration at 120 min [6, 23] of 33.4 ng/mL and a concentration at 120 min [6, 25] of 39.4 ng/mL. For the same molecule, the concentration at 120 min [6, 26] was 30.7 ng/mL, the concentration at 180 min [6, 24] was 22.9 ng/mL and the concentration at 180 min [6, 27] was 24.2 ng/mL. It also gave a concentration at 180 min [6, 23] of 12.3 ng/mL, a concentration at 180 min [6, 25] of 27.1 ng/mL and a concentration at 180 min [6, 26] of 27.9 ng/mL. It also gave a concentration at 240 min [6, 24] of 18 ng/mL, a concentration at 240 min [6, 27] of 22.7 ng/mL and a concentration at 240 min [6, 23] of 9.2 ng/mL. The concentration at 240 min [6, 25] was 20.1 ng/mL, the concentration at 240 min [6, 26] was 20.1 ng/mL and the Cmax [6, 28] was 32 ng/mL. It also gave a Tmax [6, 28] of 2 h, a Cmax [6, 29] of 24 ng/mL and a Tmax [6, 29] of 3 h. It also gave a Cmax [6, 30] of 33 ng/mL, a Tmax [6, 30] of 2 h and a Cmax [6, 31] of 39 ng/mL. For the same molecule, the Tmax [6, 31] was 2 h, the Cmax [6, 32] was 31 ng/mL and the Tmax [6, 32] was 2 h. It also gave an AUC [6, 28] of 68 ng·h/mL, an AUC [6, 29] of 59 ng·h/mL and an AUC [6, 30] of 64 ng·h/mL. The AUC [6, 31] was 83 ng·h/mL and the AUC [6, 32] was 71 ng·h/mL.
